Source: patent US20220362253A1, “NOVEL PHARMACEUTICAL FORMULATION” (GLAXOSMITHKLINE INTELLECTUAL PROPERTY DEVELOPMENT LIMITED, priority 2018, published 2022)
Values after ≈ are worked out from the molar mass of the structure shown. Values joined by “and” are separate entries in the source; they are usually repeats but may differ in a detail not shown here. Identical values can stand only once.

Legend:
[1] = Solubility screening up to 5 mg/mL at RT in aqueous acid media (Examples 1 to 6); format: physicochemical; details: free base; for solubility at 24 h: thermodynamic from solid, read-out: Drug Solubility
Procedure: Solubility of Compound A was conducted by adding a known quantity of drug to specific volume of aqueous media followed by 24 hour agitation at room temperature (RT).

[2] = Solubility screening up to 2 mg/mL at RT in aqueous acid media (Examples 7 to 13); format: physicochemical; details: target up to 2 mg/mL; for solubility at 24 h: thermodynamic from solid, read-out: Drug Solubility
[3] = Solubility in 20 mM acetic, citric and L-aspartic aqueous media as a function of pH (Example 14); format: physicochemical
[4] = Aqueous solubility with glutamic acid and glucuronic acid (Example 15); format: physicochemical; details: aqueous buffer, thermodynamic from solid, adjusted pH 4.1, filtered supernatant
Source text: Aqueous solubility of Compound A with glutamic acid and glucuronic acid were explored in Example 15.

[5] = pHmax / Ksp determination with L-aspartic acid (Example 16); format: physicochemical; details: for solubility: L-aspartic acid solution, thermodynamic from solid, >110 hr stirring at RT, read-out: Drug Solubility; for solubility / pH max: L-aspartic acid; for pH max: pHmax = pKa + log (S0/√Ksp)
Procedure: Compound A solubility was separately determined by controlling the mole ratio of L-aspartic acid relative to drug in Example 16. The concentrations of drug and counterion were measured in supernatant to calculate Ksp (Solubility product) (Table 5).

[6] = tested on: cynomolgus monkeys; assay: Injection site reactions after repeat IV bolus dosing (Example 17); format: in vivo, cynomolgus monkey; details: weekly IV bolus into antecubital vein then saline flush, 30 mM L-aspartic acid, 3.7% mannitol, pH approximately 3.0, non-stoichiometric hydrate form
Procedure: In vivo studies were conducted in cynomolgus monkeys administered IV doses of Compound A in a vehicle of 30 mM L-aspartic acid, 3.7% mannitol in Sterile Water for Injection, pH approximately 3.0. For these studies, Compound A was used in a non-stoichiometric hydrate form according to Table 6.

[7] = Stated physical properties: water solubility, hygroscopicity; format: physicochemical
[8] = Stated bioavailability; details: oral

Drug Solubility ([1]; 9.5 mM Lactic acid, solution pH 3.83, stirred 24 h at RT): 3590 µg/mL | solubility at 24 h ([1]; 9.5 mM lactic acid aqueous medium, pH 3.83, aqueous buffer, 9.5 mM Lactic acid, solution pH 3.83, stirred 24 h at RT): > 3500 µg/mL | Drug Solubility ([1]; 50 mM Citric acid, solution pH 2.30, stirred 24 h at RT): 1320 µg/mL | solubility at 24 h ([1]; 50 mM citric acid aqueous medium, pH 2.3, aqueous buffer, 50 mM Citric acid, solution pH 2.30, stirred 24 h at RT): < 2000 µg/mL | Drug Solubility ([1]; 72.8 mM Methane sulfonic acid, solution pH 1.27, stirred 24 h at RT): 3850 µg/mL | solubility at 24 h ([1]; 72.8 mM methane sulfonic acid aqueous medium, pH 1.27, aqueous buffer, 72.8 mM Methane sulfonic acid, solution pH 1.27, stirred 24 h at RT): > 3500 µg/mL | Drug Solubility ([1]; 170 mM Acetic acid, solution pH 3.16, stirred 24 h at RT): 4050 µg/mL | solubility at 24 h ([1]; 170 mM acetic acid aqueous medium, pH 3.16, aqueous buffer, 170 mM Acetic acid, solution pH 3.16, stirred 24 h at RT): > 3500 µg/mL | Drug Solubility ([2]; 10 mM Acetic acid, solution pH 3.33, stirred 24 h): 1450 µg/mL | Drug Solubility ([2]; 10 mM Methane sulfonic acid, solution pH 1.99, stirred 24 h): 1780 µg/mL | solubility at 24 h ([2]; 10 mM acetic acid aqueous medium, pH 3.33, aqueous buffer, 10 mM Acetic acid, solution pH 3.33, stirred 24 h): > 1000 µg/mL | solubility at 24 h ([2]; 10 mM methane sulfonic acid aqueous medium, pH 1.99, aqueous buffer, 10 mM Methane sulfonic acid, solution pH 1.99, stirred 24 h): > 1000 µg/mL | Drug Solubility ([2]; 25 mM Aspartic acid, solution pH 2.95, stirred 24 h): 1800 µg/mL | Drug Solubility ([2]; 25 mM Citric acid, solution pH 2.32, stirred 24 h): 1810 µg/mL | Drug Solubility ([2]; 25 mM Lactic acid, solution pH 2.57, stirred 24 h): 1830 µg/mL | Drug Solubility ([2]; 25 mM Tartaric acid, solution pH 2.33, stirred 24 h): 800 µg/mL | solubility at 24 h ([2]; 25 mM aspartic acid aqueous medium, pH 2.95, aqueous buffer, 25 mM Aspartic acid, solution pH 2.95, stirred 24 h): > 1000 µg/mL | solubility at 24 h ([2]; 25 mM citric acid aqueous medium, pH 2.32, aqueous buffer, 25 mM Citric acid, solution pH 2.32, stirred 24 h): > 1000 µg/mL | solubility at 24 h ([2]; 25 mM lactic acid aqueous medium, pH 2.57, aqueous buffer, 25 mM Lactic acid, solution pH 2.57, stirred 24 h): > 1000 µg/mL | solubility at 24 h ([2]; 25 mM tartaric acid aqueous medium, pH 2.33, aqueous buffer, 25 mM Tartaric acid, solution pH 2.33, stirred 24 h): < 1000 µg/mL | solubility ([3]; 20 mM L-aspartic acid aqueous media, 22 °C, aqueous buffer, thermodynamic from solid, 20 mM L-aspartic acid media, pH 6.14, 22 ± 1° C., Compound A in excess, read-out: Solubility): 0.7 µg/mL (≈ 0.824 µM) | solubility ([3]; 20 mM L-aspartic acid aqueous media, 22 °C, aqueous buffer, thermodynamic from solid, 20 mM L-aspartic acid media, pH 7.97, 22 ± 1° C., Compound A in excess, read-out: Solubility): 0.5 µg/mL (≈ 0.588 µM) | solubility ([3]; 20 mM L-aspartic acid aqueous media, 22 °C, aqueous buffer, thermodynamic from solid, 20 mM L-aspartic acid media, pH 8.87, 22 ± 1° C., Compound A in excess, read-out: Solubility): 0.9 µg/mL (≈ 1.06 µM) | solubility ([3]; 20 mM L-aspartic acid aqueous medium, aqueous buffer, Aspartic acid, at pH<3, read-out: Highest solubility): 4000 µg/mL (≈ 4710 µM) | solubility ([3]; 20 mM acetic acid aqueous media, 22 °C, aqueous buffer, thermodynamic from solid, 20 mM acetic acid media, pH 6.42, 22 ± 1° C., Compound A in excess, read-out: Solubility): 0.5 µg/mL (≈ 0.588 µM) | solubility ([3]; 20 mM acetic acid aqueous media, 22 °C, aqueous buffer, thermodynamic from solid, 20 mM acetic acid media, pH 9.84, 22 ± 1° C., Compound A in excess, read-out: Solubility): 0.5 µg/mL (≈ 0.588 µM) | solubility ([3]; 20 mM acetic, citric or L-aspartic acid aqueous media, aqueous buffer, at pH 4.0, any of the counter ions (L-aspartic, acetic, citric acid), read-out: Solubility): ≤ 500 µg/mL | solubility ([3]; 20 mM citric acid aqueous media, 22 °C, aqueous buffer, thermodynamic from solid, 20 mM citric acid media, pH 6.92, 22 ± 1° C., Compound A in excess, read-out: Solubility): 0.5 µg/mL (≈ 0.588 µM) | solubility ([3]; 20 mM citric acid aqueous media, 22 °C, aqueous buffer, thermodynamic from solid, 20 mM citric acid media, pH 8.82, 22 ± 1° C., Compound A in excess, read-out: Solubility): 0.5 µg/mL (≈ 0.588 µM) | solubility ([3]; 22 °C, aqueous buffer, thermodynamic from solid, 20 mM L-aspartic acid media, pH 3.05, 22 ± 1° C., Compound A in excess, read-out: Solubility): 5270 µg/mL (≈ 6200 µM) | solubility ([3]; 22 °C, aqueous buffer, thermodynamic from solid, 20 mM L-aspartic acid media, pH 3.23, 22 ± 1° C., Compound A in excess, read-out: Solubility): 3970 µg/mL (≈ 4670 µM) | solubility ([3]; 22 °C, aqueous buffer, thermodynamic from solid, 20 mM L-aspartic acid media, pH 3.76, 22 ± 1° C., Compound A in excess, read-out: Solubility): 472 µg/mL (≈ 555 µM) | solubility ([3]; 22 °C, aqueous buffer, thermodynamic from solid, 20 mM L-aspartic acid media, pH 3.96, 22 ± 1° C., Compound A in excess, read-out: Solubility): 227 µg/mL (≈ 267 µM) | solubility ([3]; 22 °C, aqueous buffer, thermodynamic from solid, 20 mM L-aspartic acid media, pH 4.18, 22 ± 1° C., Compound A in excess, read-out: Solubility): 68.7 µg/mL (≈ 80.8 µM) | solubility ([3]; 22 °C, aqueous buffer, thermodynamic from solid, 20 mM L-aspartic acid media, pH 4.54, 22 ± 1° C., Compound A in excess, read-out: Solubility): 16.7 µg/mL (≈ 19.6 µM) | solubility ([3]; 22 °C, aqueous buffer, thermodynamic from solid, 20 mM L-aspartic acid media, pH 4.93, 22 ± 1° C., Compound A in excess, read-out: Solubility): 5 µg/mL (≈ 5.88 µM) | solubility ([3]; 22 °C, aqueous buffer, thermodynamic from solid, 20 mM acetic acid media, pH 3.26, 22 ± 1° C., Compound A in excess, read-out: Solubility): 1760 µg/mL (≈ 2070 µM) | solubility ([3]; 22 °C, aqueous buffer, thermodynamic from solid, 20 mM acetic acid media, pH 3.58, 22 ± 1° C., Compound A in excess, read-out: Solubility): 1090 µg/mL (≈ 1280 µM) | solubility ([3]; 22 °C, aqueous buffer, thermodynamic from solid, 20 mM acetic acid media, pH 3.71, 22 ± 1° C., Compound A in excess, read-out: Solubility): 810 µg/mL (≈ 953 µM) | solubility ([3]; 22 °C, aqueous buffer, thermodynamic from solid, 20 mM acetic acid media, pH 3.91, 22 ± 1° C., Compound A in excess, read-out: Solubility): 396 µg/mL (≈ 466 µM) | solubility ([3]; 22 °C, aqueous buffer, thermodynamic from solid, 20 mM acetic acid media, pH 4.09, 22 ± 1° C., Compound A in excess, read-out: Solubility): 269 µg/mL (≈ 316 µM) | solubility ([3]; 22 °C, aqueous buffer, thermodynamic from solid, 20 mM acetic acid media, pH 4.64, 22 ± 1° C., Compound A in excess, read-out: Solubility): 24.1 µg/mL (≈ 28.4 µM) | solubility ([3]; 22 °C, aqueous buffer, thermodynamic from solid, 20 mM acetic acid media, pH 4.85, 22 ± 1° C., Compound A in excess, read-out: Solubility): 10.8 µg/mL (≈ 12.7 µM) | solubility ([3]; 22 °C, aqueous buffer, thermodynamic from solid, 20 mM acetic acid media, pH 5.48, 22 ± 1° C., Compound A in excess, read-out: Solubility): 2.9 µg/mL (≈ 3.41 µM) | solubility ([3]; 22 °C, aqueous buffer, thermodynamic from solid, 20 mM citric acid media, pH 2.47, 22 ± 1° C., Compound A in excess, read-out: Solubility): 456 µg/mL (≈ 536 µM) | solubility ([3]; 22 °C, aqueous buffer, thermodynamic from solid, 20 mM citric acid media, pH 2.61, 22 ± 1° C., Compound A in excess, read-out: Solubility): 195 µg/mL (≈ 229 µM) | solubility ([3]; 22 °C, aqueous buffer, thermodynamic from solid, 20 mM citric acid media, pH 2.74, 22 ± 1° C., Compound A in excess, read-out: Solubility): 81.6 µg/mL (≈ 96 µM) | solubility ([3]; 22 °C, aqueous buffer, thermodynamic from solid, 20 mM citric acid media, pH 3.98, 22 ± 1° C., Compound A in excess, read-out: Solubility): 5.4 µg/mL (≈ 6.35 µM) | solubility ([3]; 22 °C, aqueous buffer, thermodynamic from solid, 20 mM citric acid media, pH 4.94, 22 ± 1° C., Compound A in excess, read-out: Solubility): 4 µg/mL (≈ 4.71 µM) | solubility ([3]; 22 °C, aqueous buffer, thermodynamic from solid, 20 mM citric acid media, pH 5.91, 22 ± 1° C., Compound A in excess, read-out: Solubility): 1.3 µg/mL (≈ 1.53 µM) | solubility ([3]; 22 °C, pH 2.9, aqueous buffer, thermodynamic from solid, 20 mM citric acid media, pH 2.90, 22 ± 1° C., Compound A in excess, read-out: Solubility): 41.5 µg/mL (≈ 48.8 µM) | solubility ([3]; 22 °C, pH 3.4, aqueous buffer, thermodynamic from solid, 20 mM citric acid media, pH 3.40, 22 ± 1° C., Compound A in excess, read-out: Solubility): 8.3 µg/mL (≈ 9.77 µM) | solubility ([4]; aqueous glucuronic acid (1 mol eq), Glucuronic acid (1 mol eq)): 9000 µg/mL (≈ 10600 µM) | solubility ([4]; aqueous glutamic acid (1 mol eq), Glutamic acid (1 mol eq)): 4500 µg/mL (≈ 5290 µM) | solubility ([5]; counterion conc. 8.45 mM): 4070 µg/mL and 4790 µM | solubility ([5]; counterion conc. 8.70 mM): 3950 µg/mL and 4640 µM | solubility ([5]; counterion conc. 9.18 mM): 3940 µg/mL and 4640 µM | solubility ([5]; counterion conc. 9.33 mM): 4140 µg/mL and 4880 µM | pH max ([5]; counterion conc. 8.45 mM): 3.57 | pH max ([5]; counterion conc. 8.70 mM): 3.57 | pH max ([5]; counterion conc. 9.18 mM): 3.56 | pH max ([5]; counterion conc. 9.33 mM): 3.54 | pHmax ([5]; in L-aspartic acid media, from the Ksp measurements in Table 5): 3.5-3.6 | pKa ([5]; value used for the pHmax calculation, read-out: pKa of drug): 7 | solubility [7]: < 10 µg/mL | bioavailability [8]: poor oral bioavailability
Structure (SMILES): CCn1nc(C)cc1C(=O)Nc1nc2cc(C(N)=O)cc(OC)c2n1C/C=C/Cn1c(NC(=O)c2cc(C)nn2CC)nc2cc(C(N)=O)cc(OCCCN3CCOCC3)c21 [Compound A, (E)-1-(4-(5-Carbamoyl-2-(1-ethyl-3-methyl-1H-pyrazole-5-carboxamido)-7-(3-morpholinopropoxy)-1H-benzo[d]imidazol-1-yl)but-2-en-1-yl)-2-(1-ethyl-3-methyl-1H-pyrazole-5-carboxamido)-7-methoxy-1H-benzo[d]imidazole-5-carboxamide]
Injection site reactions [6]: no Compound A-related injection site reactions were observed
